51 compounds from US20070203159A1, “Purine compounds” (priority 2006, published 2007) can be followed below.

Converted amounts (≈) assume the structure as drawn.

In one data set the test system is Mycobacterium tuberculosis H37Rv (ATCC 27294). As to the kind of experiment: Microplate Alamar Blue Assay (MABA): primary screening and MIC determination. Format: cell-based. The note with it: Mycobacterium tuberculosis; retest at lower concentrations in the MABA; read-out: MIC.
`Clc1ccc(Cn2cnc3c(-c4ccco4)ncnc32)cc1` [Example 27, 9-(4-Chlorophenylmethyl)-6-(2-furyl)-9H-purine]: the MIC (in general, the lowest concentration found to suppress growth) stood at 6.25 µg/mL (≈ 20.1 µM).

With `Clc1ccc(Cn2cnc3c(-c4ccco4)ncnc32)cc1Cl` [Example 28, 9-(3,4-Dichlorophenylmethyl)-6-(2-furyl)-9H-purine], the MIC is 6.25 µg/mL (≈ 18.1 µM).

For `Fc1ccc(Cn2cnc3c(-c4ccco4)ncnc32)cc1` [Example 29, 9-(4-Fluorophenylmethyl)-6-(2-furyl)-9H-purine], the MIC is 6.25 µg/mL (≈ 21.2 µM).

Turning to `Cc1ccc(Cn2cnc3c(-c4ccco4)ncnc32)cc1` [Example 31, 6-(2-Furyl)-9-(4-methylphenylmethyl)-9H-purine], the MIC is 3.13 µg/mL (≈ 10.8 µM).

With `CC(C)(C)c1ccc(Cn2cnc3c(-c4ccco4)ncnc32)cc1` [Example 32, 9-(4-tert-Butylphenylmethyl)-6-(2-furyl)-9H-purine], the MIC came to 12.5 µg/mL (≈ 37.6 µM).

On to `Clc1ccc(Cn2cnc3c(-c4ccco4)nc(Cl)nc32)cc1` [Example 46, 2-Chloro-9-(4-chlorophenylmethyl)-6-(2-furyl)-9H-purine], for which the MIC turned out to be 1.56 µg/mL (≈ 4.52 µM).

Still in this data set, the particulars now being: retest at lower concentrations in the MABA.
“2-Chloro-6-(2-furyl)-9-(4-methyloxyphenylmethyl)-9H-purine [Example 50]”: the MIC was determined as 0.78 µg/mL.

“2-Cyclopentenyl-6-(2-furyl)-9-(4-methoxyphenylmethyl)-9H-purine [Example 81]” displayed an MIC of 6.25 µg/mL.

System in a further data set: not given
Test: not given
Details: not given
On to `COc1ccc(Cn2c(Cl)nc3c(-c4ccc(Cl)o4)ncnc32)cc1`, for which the melting point (as a rule, the temperature, or range, at which the solid turns liquid) fell in the range of 166 to 168 °C.

`CCSc1nc(-c2ccco2)c2ncn(Cc3ccc(OC)cc3)c2n1` registered a melting point of 116 to 117 °C.

For `CCCOc1nc(-c2ccco2)c2ncn(Cc3ccc(OC)cc3)c2n1`, the melting point was found to be 119 °C.

On to `COc1ccc(Cn2cnc3c(-c4ccco4)nc(OC(C)C)nc32)cc1`, for which the melting point lay in the range of 145 to 146 °C.

Compound `CCCCOc1nc(-c2ccco2)c2ncn(Cc3ccc(OC)cc3)c2n1` displayed a melting point of 113 °C.

On to `COc1ccc(Cn2cnc3c(-c4ccco4)nc(OCc4ccccc4)nc32)cc1`, for which the melting point is 122 °C.

As for `COc1ccc(Cn2cnc3c(-c4ccco4)nc(I)nc32)cc1`, the melting point fell in the range of 145 to 148 °C.

For `COc1ccc(Cn2cnc3c(-c4ccco4)nc(NC(C)=O)nc32)cc1`, the melting point was 167 to 168 °C.

Consider `COc1ccc(Cn2cnc3c(-c4ccco4)nc(N(C(C)=O)C(C)=O)nc32)cc1`, for which the melting point lay in the range of 187 to 189 °C.

`CNc1nc(-c2ccco2)c2ncn(Cc3ccc(OC)cc3)c2n1` came in with a melting point of 144 to 145 °C.

Take `COc1ccc(Cn2cnc3c(-c4ccco4)nc(N(C)C)nc32)cc1`: the melting point lay within 163 to 164 °C.

The compound `CCOc1nc(-c2ccco2)c2ncn(Cc3ccc(OC)cc3)c2n1` had a melting point of 137 to 138 °C.

`CC#Cc1nc(-c2ccco2)c2ncn(Cc3ccc(OC)cc3)c2n1` registered a melting point of 158 to 160 °C.

For the compound `Clc1ccc(Cn2cnc3c(-c4ccco4)ncnc32)cc1` [Example 27, 9-(4-Chlorophenylmethyl)-6-(2-furyl)-9H-purine], the melting point was in the range of 156 to 159 °C.

`Clc1ccc(Cn2cnc3c(-c4ccco4)ncnc32)cc1Cl` [Example 28, 9-(3,4-Dichlorophenylmethyl)-6-(2-furyl)-9H-purine] yielded a melting point of 183 to 185 °C.

`Fc1ccc(Cn2cnc3c(-c4ccco4)ncnc32)cc1` [Example 29, 9-(4-Fluorophenylmethyl)-6-(2-furyl)-9H-purine]: the melting point fell in the range of 162 to 164 °C.

For the compound `FC(F)(F)c1ccc(Cn2cnc3c(-c4ccco4)ncnc32)cc1` [Example 30, 6-(2-Furyl)-9-(4-trifluoromethylphenylmethyl)-9H-purine], the melting point was 159 to 161 °C.

`Cc1ccc(Cn2cnc3c(-c4ccco4)ncnc32)cc1` [Example 31, 6-(2-Furyl)-9-(4-methylphenylmethyl)-9H-purine] registered a melting point of 166 to 167 °C.

The compound `CC(C)(C)c1ccc(Cn2cnc3c(-c4ccco4)ncnc32)cc1` [Example 32, 9-(4-tert-Butylphenylmethyl)-6-(2-furyl)-9H-purine] gave a melting point of 185 to 187 °C.

`COc1cc(Cn2cnc3c(-c4ccco4)ncnc32)cc(OC)c1OC` [Example 36, 6-(2-Furyl)-9-(3,4,5-trimethoxyphenylmethyl)-9H-purine]: the melting point lay within 195 to 196 °C.

For `FC(F)(F)Oc1ccc(Cn2cnc3c(-c4ccco4)ncnc32)cc1` [Example 37, 6-(2-Furyl)-9-(4-trifluoromethoxyphenylmethyl)-9H-purine], the melting point lay within 146 to 147 °C.

For the compound `FC(F)(F)Oc1cccc(Cn2cnc3c(-c4ccco4)ncnc32)c1` [Example 38, 6-(2-Furyl)-9-(3-trifluoromethoxyphenylmethyl)-9H-purine], the melting point is 133 to 135 °C.

As to `Oc1ccc(Cn2cnc3c(-c4ccco4)ncnc32)cc1` [Example 41, 6-(2-Furyl)-9-(4-hydroxyphenylmethyl)-9H-purine], the melting point fell in the range of 231 to 233 °C.

For the compound `CC(=O)Nc1ccc(Cn2cnc3c(-c4ccco4)ncnc32)cc1` [Example 44, 9-(4-Acetamidophenylmethyl)-6-(2-furyl)-9H-purine], the melting point is 278 to 280 °C.

For the compound `Nc1ccc(Cn2cnc3c(-c4ccco4)ncnc32)cc1` [Example 45, 9-(4-Aminophenylmethyl)-6-(2-furyl)-9H-purine], the melting point fell in the range of 195 to 197 °C.

On to `COc1ccc(Cn2cnc3c(-c4ccco4)nc(F)nc32)cc1` [Example 57, 2-Fluoro-6-(2-furyl)-9-(4-methoxyphenylmethyl)-9H-purine], for which the melting point is 210 to 215 °C.

On to `COc1ccc(Cn2cnc3c(-c4ccco4)nc(N)nc32)cc1` [Example 61, 2-Amino-6-(2-furyl)-9-(4-methoxyphenylmethyl)-9H-purine], for which the melting point was 235 to 237 °C (dec.).

`COc1ccc(CNc2nc(-c3ccco3)c3ncn(Cc4ccc(OC)cc4)c3n2)cc1` [Example 65, 6-(2-Furyl)-2-(4-methoxyphenylmethylamino)-9-(4-methoxyphenylmethyl)-9H-purine] yielded a melting point of 153 to 154 °C.

`COc1ccc(Cn2cnc3c(-c4ccco4)nc(S(C)(=O)=O)nc32)cc1` [Example 70, 6-(2-Furyl)-9-(4-methoxyphenylmethyl)-2-methylsulfonyl-9H-purine]: the melting point lay in the range of 184 to 185 °C.

Take `COc1ccc(Cn2cnc3c(-c4ccco4)nc([N+](=O)[O-])nc32)cc1` [Example 72, 6-(2-Furyl)-9-(4-methoxyphenylmethyl)-2-nitro-9H-purine]: the melting point was 182 to 183 °C.

Compound `COc1ccc(Cn2cnc3c(-c4ccco4)nc(OC)nc32)cc1` [Example 74, 6-(2-Furyl)-2-methoxy-9-(4-methoxyphenylmethyl)-9H-purine] displayed a melting point of 167 to 169 °C.

Regarding `COc1ccc(Cn2cnc3c(-c4ccco4)nc(C)nc32)cc1` [Example 76, 6-(2-Furyl)-9-(4-methoxyphenylmethyl)-2-methyl-9H-purine], the melting point was 127 to 130 °C.

With `CCc1nc(-c2ccco2)c2ncn(Cc3ccc(OC)cc3)c2n1` [Example 77, 2-Ethyl-6-(2-furyl)-9-(4-methoxyphenylmethyl)-9H-purine], the melting point lay in the range of 119 to 120 °C.

`COc1ccc(Cn2cnc3c(-c4ccco4)nc(C(C)C)nc32)cc1` [Example 78, 6-(2-Furyl)-9-(4-methoxyphenylmethyl)-2-(1-methylethyl)-9H-purine]: the melting point is 123 °C.

As for `CCCCc1nc(-c2ccco2)c2ncn(Cc3ccc(OC)cc3)c2n1` [Example 79, 2-n-Butyl-6-(2-furyl)-9-(4-methoxyphenylmethyl)-9H-purine], the melting point amounted to 103 °C.

Consider `COc1ccc(Cn2cnc3c(-c4ccco4)nc(C4CC4)nc32)cc1` [Example 80, 2-Cyclopropyl-6-(2-furyl)-9-(4-methoxyphenylmethyl)-9H-purine], for which the melting point fell in the range of 115 to 116 °C.

The compound `C=Cc1nc(-c2ccco2)c2ncn(Cc3ccc(OC)cc3)c2n1` [Example 82, 2-Ethenyl-6-(2-furyl)-9-(4-methoxyphenylmethyl)-9H-purine] came in with a melting point of 94 to 95 °C.

In turn, `C=C(OCC)c1nc(-c2ccco2)c2ncn(Cc3ccc(OC)cc3)c2n1` [Example 83, 2-(1-Ethoxyvinyl)-6-(2-furyl)-9-(4-methoxyphenylmethyl)-9H-purine] came in with a melting point of 144 to 145 °C.

`COc1ccc(Cn2cnc3c(-c4ccco4)nc(-c4ccccc4)nc32)cc1` [Example 84, 6-(2-Furyl)-9-(4-methoxyphenylmethyl)-2-phenyl-9H-purine] returned a melting point of 140 to 142 °C.

Consider `COc1ccc(Cn2cnc3c(-c4ccco4)nc(C(C)=O)nc32)cc1` [Example 86, 2-Acetyl-6-(2-furyl)-9-(4-methoxyphenylmethyl)-9H-purine], for which the melting point was 166 to 167 °C.

The compound `COc1ccc(Cn2cnc3c(-c4ccco4)nc(C#N)nc32)cc1` [Example 87, 6-(2-Furyl)-9-(4-methoxyphenylmethyl)-9H-purine-2-carbonitrile] came in with a melting point of 205 to 207 °C.

As to `C#Cc1nc(-c2ccco2)c2ncn(Cc3ccc(OC)cc3)c2n1` [Example 89, 2-Ethynyl-6-(2-furyl)-9-(4-methoxyphenylmethyl)-9H-purine], the melting point worked out at 155 °C.

The compound `COc1ccc(Cn2cnc3c(-c4ccco4)nc(C(F)(F)F)nc32)cc1` [Example 94, 6-(2-Furyl)-9-(4-methoxyphenylmethyl)-2-trifluoromethyl-9H-purine] returned a melting point of 149 to 150 °C.

Consider `COc1ccc(Cn2c(Cl)nc3c(-c4ccco4)ncnc32)cc1` [Example 99, 8-Chloro-6-(2-furyl)-9-(4-methoxyphenylmethyl)-9H-purine], for which the melting point is 156 to 157 °C.

Compound `COc1ccc(Cn2c(Br)nc3c(-c4ccco4)ncnc32)cc1` [Example 101, 8-Bromo-6-(2-furyl)-9-(4-methoxyphenylmethyl)-9H-purine] registered a melting point of 150 to 151 °C.

In the case of `COc1ccc(Cn2c(-c3ccco3)nc3c(-c4ccco4)ncnc32)cc1` [Example 103, 6,8-Di(2-furyl)-9-(4-methoxyphenylmethyl)-9H-purine], the melting point fell in the range of 134 to 136 °C.

`COc1ccc(Cn2c(OC)nc3c(-c4ccco4)ncnc32)cc1` [Example 104, 6-(2-Furyl)-8-methoxy-9-(4-methoxyphenylmethyl)-9H-purine] gave a melting point of 143 to 144 °C.

The compound `COc1ccc(Cn2c(O)nc3c(-c4ccco4)ncnc32)cc1` [Example 105, 6-(2-Furyl)-8-hydroxy-9-(4-methoxyphenylmethyl)-9H-purine] had a melting point of 249 to 251 °C.
